In ChEMBL document CHEMBL1201862, “PubChem BioAssay data set” (2004):
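Five concentrations, 48 hours, 96-well plates. GI50 = concentration required for 50% inhibition of growth.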 Active and inactive are the calls of the source. Cut-off read from the data, not from the text of the source: active = GI50 up to about 1.1 µM and inactive = higher.

Tests used:
Assay in all cases: NCI tumour cell line growth inhibition, 48 h
[1] = test system: EKVX
[2] = test system: HCT-116
[3] = test system: HL-60
[4] = test system: SNB-19
[5] = test system: U-251
[6] = test system: SK-MEL-28
[7] = test system: TK-10
[8] = test system: SNB-75
[9] = test system: SW-620
[10] = test system: UACC-257
[11] = test system: HCC 2998
[12] = test system: 786-0
[13] = test system: SR
[14] = test system: K562
[15] = test system: HCT-15
[16] = test system: RPMI-8226
[17] = test system: NCI/ADR-RES
[18] = test system: DU-145
[19] = test system: A549
[20] = test system: CAKI-1
[21] = test system: NCI-H460
[22] = test system: RXF 393
[23] = test system: CCRF-CEM
[24] = test system: NCI-H226
[25] = test system: SF-539
[26] = test system: OVCAR-8
[27] = test system: IGROV-1
[28] = test system: NCI-H23
[29] = test system: HOP-92
[30] = test system: PC-3
[31] = test system: SK-MEL-2
[32] = test system: UO-31
[33] = test system: MOLT-4
[34] = test system: KM12
[35] = test system: ACHN
[36] = test system: MDA-MB-435
[37] = test system: SK-MEL-5
[38] = test system: COLO 205
[39] = test system: MDA-MB-231
[40] = test system: HT-29
[41] = test system: T47D
[42] = test system: A498
[43] = test system: M14
[44] = test system: UACC-62
[45] = test system: MCF7
[46] = test system: OVCAR-4
[47] = test system: OVCAR-5
[48] = test system: SN12C
[49] = test system: MDA-N
[50] = test system: HOP-62
[51] = test system: LOX IMVI
[52] = test system: BT-549
[53] = test system: SF-295
[54] = test system: OVCAR-3
[55] = test system: SF-268
[56] = test system: Malme-3M

In the case of `C(=C\c1ccc(-c2cn3cc(/C=C/C=N/NC4=NCCN4)ccc3n2)cc1)/C=N/NC1=NCCN1`, the GI50 [1] is reported as 1.6 µM (inactive), the GI50 [2] is reported as 0.589 µM (active) and the GI50 [3] is reported as 0.368 µM (active). For the same molecule, the GI50 [4] was 1.27 µM (inactive), the GI50 [5] was 0.399 µM (active) and the GI50 [6] was 1.84 µM (inactive). The GI50 [7] was 5.08 µM (inactive), the GI50 [8] was 1.31 µM (inactive) and the GI50 [9] was 0.083 µM (active). For the same molecule, the GI50 [10] was 0.887 µM (active), the GI50 [11] was 1.19 µM (inactive) and the GI50 [12] was 1.32 µM (inactive). The GI50 [13] was 1.04 µM (active), the GI50 [14] was 0.461 µM (active) and the GI50 [15] was 3.72 µM. The GI50 [16] was 0.0427 µM (active), the GI50 [17] was > 25.8 µM (inactive) and the GI50 [18] was 2 µM (inactive). For the same molecule, the GI50 [19] was 0.294 µM (active), the GI50 [20] was 1.3 µM (inactive) and the GI50 [21] was 0.514 µM (active). The GI50 [22] was 1.51 µM (inactive), the GI50 [23] was 1.66 µM (inactive) and the GI50 [24] was 1.5 µM (inactive). For the same molecule, the GI50 [25] was 1.57 µM (inactive), the GI50 [26] was 1.27 µM (inactive) and the GI50 [27] was 2.05 µM (inactive). The GI50 [28] was 1.72 µM (inactive), the GI50 [29] was 1.14 µM (inactive) and the GI50 [30] was 1.47 µM (inactive). For the same molecule, the GI50 [31] was 1.35 µM (inactive), the GI50 [32] was 3.09 µM (inactive) and the GI50 [33] was 2.07 µM (inactive). For the same molecule, the GI50 [34] was 2 µM (inactive), the GI50 [35] was 1.36 µM (inactive) and the GI50 [36] was 1.29 µM (inactive).
`Cc1cn(C2CCC(/C=N\O)O2)c(=O)[nH]c1=O` (stereo unspecified) was tested, and the GI50 [1] was > 100 µM (inactive), the GI50 [2] was > 100 µM (inactive) and the GI50 [37] was > 100 µM (inactive). The GI50 [38] was > 100 µM (inactive), the GI50 [39] was > 100 µM (inactive) and the GI50 [40] was > 100 µM (inactive). The GI50 [41] was > 100 µM (inactive), the GI50 [4] was > 100 µM (inactive) and the GI50 [5] was > 100 µM (inactive). The GI50 [6] was > 100 µM (inactive), the GI50 [42] was > 100 µM (inactive) and the GI50 [8] was > 100 µM (inactive). For the same molecule, the GI50 [9] was > 100 µM (inactive), the GI50 [10] was > 100 µM (inactive) and the GI50 [43] was > 100 µM (inactive). For the same molecule, the GI50 [11] was > 100 µM (inactive), the GI50 [44] was > 100 µM (inactive) and the GI50 [12] was > 100 µM (inactive). For the same molecule, the GI50 [13] was > 100 µM (inactive), the GI50 [14] was > 100 µM (inactive) and the GI50 [15] was > 100 µM. For the same molecule, the GI50 [16] was > 100 µM (inactive), the GI50 [17] was > 100 µM (inactive) and the GI50 [18] was > 100 µM (inactive). For the same molecule, the GI50 [19] was > 100 µM (inactive), the GI50 [45] was > 100 µM (inactive) and the GI50 [20] was > 100 µM (inactive). For the same molecule, the GI50 [46] was > 100 µM (inactive), the GI50 [47] was > 100 µM (inactive) and the GI50 [21] was > 100 µM (inactive). The GI50 [48] was > 100 µM (inactive), the GI50 [49] was > 100 µM (inactive) and the GI50 [22] was > 100 µM (inactive). For the same molecule, the GI50 [23] was > 100 µM (inactive), the GI50 [24] was > 100 µM (inactive) and the GI50 [25] was > 100 µM (inactive). The GI50 [50] was > 100 µM (inactive), the GI50 [26] was > 100 µM (inactive) and the GI50 [27] was > 100 µM (inactive). For the same molecule, the GI50 [28] was > 100 µM (inactive), the GI50 [29] was > 100 µM (inactive) and the GI50 [30] was > 100 µM (inactive). For the same molecule, the GI50 [31] was > 100 µM (inactive), the GI50 [51] was > 100 µM (inactive) and the GI50 [32] was > 100 µM (inactive). For the same molecule, the GI50 [33] was > 100 µM (inactive), the GI50 [52] was > 100 µM (inactive) and the GI50 [34] was > 100 µM (inactive). The GI50 [53] was > 100 µM (inactive), the GI50 [54] was > 100 µM (inactive) and the GI50 [35] was > 100 µM (inactive). For the same molecule, the GI50 [36] was > 100 µM (inactive).
In the case of `CC(=O)OCC1OC(O[C@@H]2C[C@H]3C(C)(C)[C@H](OC(C)=O)CC[C@]3(C)[C@H]3CCC4=C([C@@H](C)C[C@@H](O)[C@H](O)C(C)(C)O)CC[C@@]4(C)[C@@]32C)C(O)C(O)C1O` (stereo partly specified), the GI50 [5] is reported as 14.6 µM (inactive) and the GI50 [55] is reported as 13.6 µM (inactive).
In the case of `CC(=O)OCC(OC(C)=O)C(OC(C)=O)C(C=NN(C(C)=O)S(=O)(=O)c1ccc(/C=C2\NC(=O)NC2=O)cc1)OC(C)=O` (stereo unspecified), the GI50 [56] is reported as > 100 µM (inactive), the GI50 [40] is reported as > 100 µM (inactive) and the GI50 [8] is reported as > 100 µM (inactive). The GI50 [11] was > 100 µM (inactive), the GI50 [14] was > 100 µM (inactive) and the GI50 [45] was > 100 µM (inactive). The GI50 [20] was > 100 µM (inactive), the GI50 [48] was > 100 µM (inactive) and the GI50 [22] was > 100 µM (inactive). For the same molecule, the GI50 [24] was > 100 µM (inactive), the GI50 [25] was > 100 µM (inactive) and the GI50 [50] was > 100 µM (inactive). For the same molecule, the GI50 [26] was > 100 µM (inactive), the GI50 [31] was > 100 µM (inactive) and the GI50 [52] was > 100 µM (inactive). For the same molecule, the GI50 [53] was > 100 µM (inactive).
